Target: PARP1 (Homo sapiens, UniProt P09874)
Test: PARP1 biochemical DELFIA assay (auto-PARylation)
Conditions: Table 1

PARP1, sequence (P09874 whole entry): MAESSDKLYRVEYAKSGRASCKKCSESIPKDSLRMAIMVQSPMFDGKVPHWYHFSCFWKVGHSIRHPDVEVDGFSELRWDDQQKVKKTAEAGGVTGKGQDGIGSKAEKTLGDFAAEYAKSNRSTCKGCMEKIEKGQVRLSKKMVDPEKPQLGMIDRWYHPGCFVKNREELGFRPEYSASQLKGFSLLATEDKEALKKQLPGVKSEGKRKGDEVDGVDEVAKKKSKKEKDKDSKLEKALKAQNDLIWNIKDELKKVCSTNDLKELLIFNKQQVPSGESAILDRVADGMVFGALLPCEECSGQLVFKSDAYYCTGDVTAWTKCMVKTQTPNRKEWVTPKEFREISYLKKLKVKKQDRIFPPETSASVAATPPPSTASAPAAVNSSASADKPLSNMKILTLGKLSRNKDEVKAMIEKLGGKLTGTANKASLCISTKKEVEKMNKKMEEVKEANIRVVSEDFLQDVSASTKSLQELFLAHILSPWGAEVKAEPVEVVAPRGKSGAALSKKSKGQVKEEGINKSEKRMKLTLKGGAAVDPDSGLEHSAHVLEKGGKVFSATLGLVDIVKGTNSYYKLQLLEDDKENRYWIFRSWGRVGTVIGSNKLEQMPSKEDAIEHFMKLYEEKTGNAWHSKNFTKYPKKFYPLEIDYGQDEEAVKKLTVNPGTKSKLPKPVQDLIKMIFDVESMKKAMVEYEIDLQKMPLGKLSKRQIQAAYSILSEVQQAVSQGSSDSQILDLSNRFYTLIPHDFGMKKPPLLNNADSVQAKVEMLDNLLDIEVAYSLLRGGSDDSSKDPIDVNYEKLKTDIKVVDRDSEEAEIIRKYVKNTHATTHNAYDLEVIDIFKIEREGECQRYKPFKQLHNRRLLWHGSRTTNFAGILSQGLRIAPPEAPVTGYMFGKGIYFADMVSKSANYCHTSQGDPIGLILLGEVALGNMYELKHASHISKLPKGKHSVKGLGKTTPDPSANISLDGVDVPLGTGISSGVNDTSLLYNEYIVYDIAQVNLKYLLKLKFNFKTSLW

| IC50 | Molecule |
| --- | --- |
| 0.1 to 1 µM | O=C(CCN1CCCC(c2cc(C(F)(F)F)c(=O)[nH]n2)C1)N1CCN(c2ncc(OC(F)(F)F)cn2)CC1 (single isomer, unassigned) [Compound 13a] |
| 0.01 to 0.1 µM | O=C(CCN1CCCC1c1cc(C(F)(F)F)c(=O)[nH]n1)N1CCN(c2ncc(C(F)(F)F)cn2)CC1 (single isomer, unassigned) [Compound 18a, 6-(1-(3-oxo-3-(4-(5-(trifluoromethyl)pyrimidin-2-yl)piperazin-1-yl)propyl)pyrrolidin-2-yl)-4-(trifluoromethyl)pyridazin-3(2H)-one] |
| 0.01 to 0.1 µM | O=C(CCN1CCCC(c2c[nH]c(=O)c(C(F)(F)F)c2)C1)N1CCN(c2ncc(C(F)(F)F)cn2)CC1 (single isomer, unassigned) [Compound 25b] |
| 0.1 to 1 µM | O=C(CCN1CCC(c2cc(C(F)(F)F)c(=O)[nH]n2)C1)N1CCN(c2ncc(C(F)(F)F)cn2)CC1 (single isomer, unassigned) [Compound 7a] |
| 0.01 to 0.1 µM | O=C(CCN1CCCC1c1cc(C(F)(F)F)c(=O)[nH]n1)N1CCN(c2ncc(C(F)(F)F)cn2)CC1 (single isomer, unassigned) [Compound 18b, 6-(1-(3-oxo-3-(4-(5-(trifluoromethyl)pyrimidin-2-yl)piperazin-1-yl)propyl)pyrrolidin-2-yl)-4-(trifluoromethyl)pyridazin-3(2H)-one] |
| 0.1 to 1 µM | N#Cc1ccc(N2CCN(C(=O)CCN3CCCC(c4cc(C(F)(F)F)c(=O)[nH]n4)C3)CC2)nc1 (single isomer, unassigned) [Compound 11b] |
| 0.1 to 1 µM | CCc1cc(C2CCCN(CCC(=O)N3CCN(c4ncc(C(F)(F)F)cn4)CC3)C2)n[nH]c1=O (single isomer, unassigned) [Compound 6b, 4-ethyl-6-(1-(3-oxo-3-(4-(5-(trifluoromethyl)pyrimidin-2-yl)piperazin-1-yl)propyl)piperidin-3-yl)pyridazin-3(2H)-one] |
| 0.1 to 1 µM | O=C(CN1CCN(c2ncc(C(F)(F)F)cn2)CC1)N1CCCC1c1cc(C(F)(F)F)c(=O)[nH]n1 (single isomer, unassigned) [Compound 32a] |
| 0.1 to 1 µM | CNC(=O)c1ccc(N2CCN(C(=O)CCN3CCCC(c4cc(C(F)(F)F)c(=O)[nH]n4)C3)CC2)nc1 (single isomer, unassigned) [Compound 28a] |
| 0.1 to 1 µM | O=C(CCC1CCN(c2ncc(C(F)(F)F)cn2)CC1)N1CCCC(c2cc(C(F)(F)F)c(=O)[nH]n2)C1 (single isomer, unassigned) [Compound 4b] |

| Molecule | IC50 |
| --- | --- |
| 6-(1-(3-oxo-3-(4-(5-(trifluoromethyl)pyrimidin-2-yl)piperazin-1-yl)propyl)azetidin-2-yl)-4-(trifluoromethyl)pyridazin-3(2H)-one [Compound 5rac] | 0.01 to 0.1 µM |

Same assay, conditions: Table 1A

| Molecule | IC50 |
| --- | --- |
| CCc1cc(C2CCCN2CC(=O)N2CCN(c3ncc(C(F)(F)F)cn3)CC2)c[nH]c1=O (single isomer, unassigned) [Compound 57b] | 1 to 10 µM |
| O=C(CN1CCCC1c1c[nH]c(=O)c(Cl)c1)N1CCN(c2ncc(C(F)(F)F)cn2)CC1 (single isomer, unassigned) [Compound 78a, 3-chloro-5-(1-(2-oxo-2-(4-(5-(trifluoromethyl)pyrimidin-2-yl)piperazin-1-yl)ethyl)pyrrolidin-2-yl)pyridin-2(1H)-one] | 0.1 to 1 µM |
| N#Cc1ccc(N2CCN(C(=O)CN3CCCC3c3cc(C(F)(F)F)c(=O)[nH]n3)CC2)nc1 (racemic) [Compound 47rac] | 0.01 to 0.1 µM |
| O=C(CN1CCCC1c1cc(C(F)(F)F)c(=O)[nH]n1)N1CCN(c2ccc(F)cn2)CC1 (single isomer, unassigned) [Compound 46b] | 0.1 to 1 µM |
| O=C(CN1CCCC1c1c[nH]c(=O)c(Cl)c1)N1CCN(c2ncc(C(F)(F)F)cn2)CC1 (single isomer, unassigned) [Compound 78b, 3-chloro-5-(1-(2-oxo-2-(4-(5-(trifluoromethyl)pyrimidin-2-yl)piperazin-1-yl)ethyl)pyrrolidin-2-yl)pyridin-2(1H)-one] | > 10 µM |
| O=C(CN1CCCC1c1cc(C(F)(F)F)c(=O)[nH]n1)N1CCN(c2ccc(C(F)(F)F)cn2)CC1 (single isomer, unassigned) [Compound 42a] | 1 to 10 µM |
| CNC(=O)c1ccc(N2CCN(C(=O)CCN3CCC(c4cc(C(F)(F)F)c(=O)[nH]n4)CC3)CC2)cn1 [Compound 59] | 0.01 to 0.1 µM |
| CNC(=O)c1ccc(N2CCN(C(=O)CN3CCC(c4cc(C(F)(F)F)c(=O)[nH]n4)CC3)CC2)cn1 [Compound 64] | 0.1 to 1 µM |
| O=C(CN1CCCC1c1cc(C(F)(F)F)c(=O)[nH]n1)N1CCN(c2ncc(F)cn2)CC1 (single isomer, unassigned) [Compound 43a] | 0.01 to 0.1 µM |
| N#Cc1cnc(N2CCN(C(=O)CN3CCCC3c3c[nH]c(=O)c(C(F)(F)F)c3)CC2)nc1 (single isomer, unassigned) [Compound 76b] | 0.1 to 1 µM |
| O=C(CN1CCC(c2cc(C(F)(F)F)c(=O)[nH]n2)CC1)N1CCN(c2ncc(C(F)(F)F)cn2)CC1 [Compound 62] | 0.1 to 1 µM |
| N#Cc1cnc(N2CCN(C(=O)CN3CCCC3c3cc(C(F)(F)F)c(=O)[nH]n3)CC2)nc1 (single isomer, unassigned) [Compound 36a] | 0.01 to 0.1 µM |
| O=C(CN1CCCC1c1n[nH]c(=O)c2ccccc12)N1CCN(c2ncc(C(F)(F)F)cn2)CC1 (single isomer, unassigned) [Compound 38a, 4-(1-(2-oxo-2-(4-(5-(trifluoromethyl)pyrimidin-2-yl)piperazin-1-yl)ethyl)pyrrolidin-2-yl)phthalazin-1(2H)-one] | 0.1 to 1 µM |
| CNC(=O)c1ccc(N2CCN(C(=O)CCN3CCC3c3cc(C(F)(F)F)c(=O)[nH]n3)CC2)cn1 (single isomer, unassigned) [Compound 56b] | 0.1 to 1 µM |
| O=C(CN1CCCC1c1cc(C(F)(F)F)c(=O)[nH]n1)N1CCN(c2ccc(F)cn2)CC1 (single isomer, unassigned) [Compound 46a] | 0.01 to 0.1 µM |
| CNC(=O)c1ccc(N2CCN(C(=O)CN3CCC(c4n[nH]c(=O)c5ccccc45)CC3)CC2)cn1 [Compound 50] | 0.01 to 0.1 µM |
| O=C(CN1CCCC1c1cc(C2CC2)c(=O)[nH]n1)N1CCN(c2ncc(C(F)(F)F)cn2)CC1 (racemic) [Compound 65rac] | 0.01 to 0.1 µM |

More lines, now with the values ahead:

| IC50 | Molecule |
| --- | --- |
| 0.1 to 1 µM | N#Cc1cc(F)cnc1N1CCN(C(=O)CN2CCCC2c2cc(C(F)(F)F)c(=O)[nH]n2)CC1 (single isomer, unassigned) [Compound 146a] |
| 0.01 to 0.1 µM | N#Cc1cc(Cl)cnc1N1CCN(C(=O)CN2CCCC2c2cc(C(F)(F)F)c(=O)[nH]n2)CC1 (single isomer, unassigned) [Compound 144a] |
| 1 to 10 µM | O=C(CN1CC(F)(F)C[C@H]1c1cc(C(F)(F)F)c(=O)[nH]n1)N1CCN(c2ncc(C(F)(F)F)cn2)CC1 [Compound 91b, (S)-6-(4,4-difluoro-1-(2-oxo-2-(4-(5-(trifluoromethyl)pyrimidin-2-yl)piperazin-1-yl)ethyl)pyrrolidin-2-yl)-4-(trifluoromethyl)pyridazin-3(2H)-one] |
| 0.1 to 1 µM | N#Cc1ccc2nc(N3CCN(C(=O)CN4CCCC4c4cc(C(F)(F)F)c(=O)[nH]n4)CC3)oc2c1 (single isomer, unassigned) [Compound 96a] |
| 1 to 10 µM | CC(C)(C)c1cnc(N2CCN(C(=O)CN3CCCC3c3cc(C(F)(F)F)c(=O)[nH]n3)CC2)nc1 (single isomer, unassigned) [Compound 82b] |
| > 10 µM | CN(c1ncc(C(F)(F)F)cn1)C1CCN(C(=O)CN2CCCC2c2cc(C(F)(F)F)c(=O)[nH]n2)CC1 (single isomer, unassigned) [Compound 107b] |
| 0.1 to 1 µM | CC1(C)CC(c2cc(C(F)(F)F)c(=O)[nH]n2)CN(CCC(=O)N2CCN(c3ncc(C(F)(F)F)cn3)CC2)C1 (single isomer, unassigned) [Compound 87a] |
| 0.01 to 0.1 µM | N#Cc1cc(C2CCCN2CC(=O)N2CC(Nc3ncc(C(F)(F)F)cn3)C2)n[nH]c1=O (single isomer, unassigned) [Compound 123a] |
| 1 to 10 µM | Cn1c(N2CCN(C(=O)CN3CCCC3c3cc(C(F)(F)F)c(=O)[nH]n3)CC2)nc2ccccc21 (single isomer, unassigned) [Compound 97b] |
| 1 to 10 µM | O=C(CN1CCCC1c1cc(C(F)(F)F)c(=O)[nH]n1)N1CCN(c2ccc(C(F)F)cn2)CC1 (single isomer, unassigned) [Compound 126b] |
| 0.01 to 0.1 µM | COC1CC(c2cc(C(F)(F)F)c(=O)[nH]n2)N(CC(=O)N2CCN(c3ncc(C(F)(F)F)cn3)CC2)C1 (single isomer, unassigned) [Compound 138cis1, 6-(4-methoxy-1-(2-oxo-2-(4-(5-(trifluoromethyl)pyrimidin-2-yl)piperazin-1-yl)ethyl)pyrrolidin-2-yl)-4-(trifluoromethyl)pyridazin-3(2H)-one] |
| 1 to 10 µM | N#Cc1cnc(N2CCN(C(=O)CN3CCCC3c3cc(C(F)(F)F)c(=O)[nH]n3)CC2)c(C(F)(F)F)c1 (single isomer, unassigned) [Compound 124b] |
| > 10 µM | COC1CC(c2cc(C(F)(F)F)c(=O)[nH]n2)N(CC(=O)N2CCN(c3ncc(C(F)(F)F)cn3)CC2)C1 (single isomer, unassigned) [Compound 138trans2, 6-(4-methoxy-1-(2-oxo-2-(4-(5-(trifluoromethyl)pyrimidin-2-yl)piperazin-1-yl)ethyl)pyrrolidin-2-yl)-4-(trifluoromethyl)pyridazin-3(2H)-one] |
| 1 to 10 µM | O=C(CN1CCCC1c1c[nH]c(=O)c(C(F)(F)F)n1)N1CCN(c2ncc(C(F)(F)F)cn2)CC1 (single isomer, unassigned) [Compound 84b, 5-(1-(2-oxo-2-(4-(5-(trifluoromethyl)pyrimidin-2-yl)piperazin-1-yl)ethyl)pyrrolidin-2-yl)-3-(trifluoromethyl)pyrazin-2(1H)-one] |
| 1 to 10 µM | O=C(CN1CCCC1c1cc(C(F)(F)F)c(=O)[nH]n1)N1CCN(c2nc3ccc(F)cc3o2)CC1 (single isomer, unassigned) [Compound 95b] |
| 0.1 to 1 µM | N#Cc1ccc2oc(N3CCN(C(=O)CN4CCCC4c4cc(C(F)(F)F)c(=O)[nH]n4)CC3)nc2c1 (single isomer, unassigned) [Compound 100b] |
| 0.01 to 0.1 µM | N#Cc1cc(C2CCCN2CC(=O)N2CCN(c3nc4cc(F)ccc4o3)CC2)n[nH]c1=O (single isomer, unassigned) [Compound 149a] |

Reference: US20260193238A1, “PHARMACEUTICAL COMPOUNDS AS PARP7 AND/OR PARP1 INHIBITORS” (Duke Street Bio Limited, priority 2022, published 2026)
